# Key:
# [1] = test system: inflammatory cytokines; assay: RT-PCR of cytokine mRNA, blood cells of VPA treated patient stimulated with CD3/CD28; assay type: in vivo, human
# Protocol: Total RNA from unstimulated and CD3/CD28 stimulated cells was isolated using the RNeasy mini kit (Qiagen). One microgram of total RNA was converted to cDNA by standard methods using reverse transcriptase and an oligo-dT primer (Invitrogen). For semiquantitative PCR, 2 μl of cDNA were amplified by PCR using the specific primers as described above (FIG. 19C).
# [2] = test system: mouse embryos; conditions: mice, when properly dosed; cited from earlier work
# [3] = test system: IL-2 and TNF-α; assay: ELISA of IL-2 and TNF-α, blood cells of VPA treated patient stimulated with CD3/CD28; assay type: in vivo, human; conditions: CD3/CD28 stimulated 24 hours
# Protocol: The cells were either left unstimulated or stimulated with CD3 and CD28 antibodies. After 24 hours at 37° C. the supernatant was collected and the secretion of IL-2 and TNF-α was quantified by ELISA (R&D Systems) (FIGS. 19A and B).
# [4] = test system: HaCaT cells; assay: BrdU incorporation assay; assay type: cell-based, human; conditions: VPA added day 0, assay day 2, FIG. 4
# Protocol: BrdU incorporation assays: Cell proliferation was detected by labeling cells with BrdU. […] Cells were incubated for 1 hour in the culture medium and then fixed with 70% ethanol. The incorporated BrdU was detected by the indirect immunoperoxidase method (Amersham, Arlington Heights, Ill.). Briefly, the culture cells were first incubated for 1 hour with Biotin-Mouse Anti-BrdU antibody. After washing in TTBS buffer (20 mM Tris, 500 mM NaCl, 0.05% Tween-20, pH 7.5), the cells were further incubated with Biotinylated goat anti-mouse immunoglobulins for 10 min. Cells were then washed and incubated with enzyme (peroxidase) conjugate for 10 min at room temperature. […] The positive cells were counted on 10 randomly picked microscopic fields. HaCaT cells were plated in 35 mm diameter wells on day 0. […] The BrdU assay was carried out on day 2.
# [5] = test system: inflammatory cytokines; assay: Semiquantitative RT-PCR of cytokine mRNA, LPS stimulated keratinocytes; assay type: cell-based, human; conditions: HaCaT, 200 nM TSA or 5 mM VPA 4 hours, then LPS 100 ng/ml 24 hours, FIG. 12A
# Protocol: Human immortalized keratinocytes (HaCaT cells) were seeded at a density of 2.5 million cells per ml into 75 cm^2 flasks. […] After 24 hours at 37° C. cells were lysed and total RNA was isolated using the RNeasy mini kit from Qiagen.
# One microgram of total RNA was transcribed to cDNA by standard methods using reverse transcriptase and an oligo-dT primer (Invitrogen). For semiquantitative PCR, 2 μl of cDNA was amplified by PCR using specific primers. Primers for PCR were synthesized by MWG and are as follows: […]
# [6] = test system: histone H4 acetylation; assay: Immunohistochemistry of acetylated H4 after topical application to mouse skin; assay type: in vivo; conditions: athymic nude mice, VPA topically applied at 3% (w/w) vs placebo; FIGS. 8 and 9
# Protocol: Cryostat skin sections of 3 μm thickness were fixed in acetone at room temperature for 10 min. Before staining with anti-acetylated H4 antibody (clone T25, see above) the tissue was blocked by preincubation with F(ab′)2 fragments derived from goat anti-mouse immunoglobulin (Cappel) ( 1/10000 dilution in 50 mM Tris buffered saline, TBS) for 30 min. After rinsing with TBS for 10 min, the sections were incubated with anti-acetylated H4 antibody (clone T25) ( 1/4000 dilution in TBS) at room temperature for 1 hour. Then, the specimens were incubated with the rabbit anti-mouse serum and treated with APAAP (alkaline phosphatase anti-alkaline phosphatase) immunocomplex as described above. The positive staining was developed in red color with naphthol-AS-BI phosphate as a substrate, and New Fuchsin (Dako) as a chromogen. Pictures were taken with a digital camera connected to a light microscopy apparatus.
# Skin biopsies were frozen in liquid nitrogen immediately after excision. Immunohistochemistry was then performed on 3 μm sections as described in methods. Biopsies of skin topically treated with Placebo or VPA were processed in parallel, pictures were taken with a light microscopy apparatus connected to a digital camera under the same light intensity.
# [7] = test system: acetylated histones H3 and H4 and HDAC-2; assay: Western blot of peripheral blood cells from patients treated with VPA intravenously (Phase I/II study); assay type: in vivo, human; conditions: before, 6 h, 24 h, 48 h after start, FIG. 18
# Protocol: Whole cell extracts were prepared by lysis of cells in RIPA buffer including protease inhibitors. Lysates were separated by SDS gel electrophoresis and transferred onto PVDF membranes. Acetylated histones H3 and H4 and the marker gene HDAC-2 were detected by western blot analysis using an anti-acetylated H3 antibody (Upstate, #06-942), an anti-acetylated H4 antibody (clon T25; patent application EP 02.021984.6), and an anti-HDAC-2 antibody (SCBT, SC-7899). As an equal loading control PVDF membranes were stained with Coomassie (FIG. 18).
# [8] = test system: HaCaT cells; assay: MTT assay, growth of human immortalized keratinocytes; assay type: cell-based
# Protocol: MTT assay: This calorimetric assay detects the formation of formazan which is proportional to the number of cells present. Tissue culture medium containing drugs was removed and 200 μl of DME containing 2 mg/ml MTT ((3-4, 5-dimethyl thiazol-2yl) 2,5-diphenyltetrazolium bromide) was added to each well. 96-well plates were incubated at 37 ° C., and 10% CO2 for 30 minutes. Medium containing MTT was then removed and the cells were washed once with PBS. Following removal of the PBS, 200 μL DMSO was added to each well and plates were placed on a rotating platform shaker for 5 minutes. Results were obtained by reading the absorbance at a wavelength of 550 nm using a spectrophotometer. Results are expressed as percentages setting the control as 100%.
# FIG. 1 graphically depicts the results of growth assays performed on human immortalized keratinocytes (HaCaT cells), treated for three days with the indicated compounds. Drugs were added on the same day of plating (day 0). The MTT assay (to measure cell proliferation) was carried out on day 3. Various combinations of the drugs were used in the growth assays.
# Cells were plated in wells on day 0. […] The MTT assay was carried out on day 3. Various combinations of the drugs were also used in the growth assays. […] Thus, the combinatorial activity of these two drugs must be explained via synergistic activity of this treatment.
# Drugs were added on the same day of plating (day 0). The MTT assay (to measure cell proliferation) was carried out on the third day. […] Thus, this combinatorial activity of these two drugs must be explained via synergistic activity of this treatment.
# [9] = starting at 24 hours of VPA treatment
# [10] = vs untreated stimulated control
smiles,measurement,setting,value
"CCCC(CCC)C(=O)O [VPA, 2-propyl-pentanoic acid]",IL-2 mRNA transcripts,[1]; CD3/CD28 stimulated,decrease
same,TNF-α mRNA transcripts,[1]; CD3/CD28 stimulated,decrease
same,IFN-γ mRNA expression,[1]; [9],significantly reduced
same,IL-4 mRNA expression,[1]; [9],significantly reduced
same,teratogenicity,[2],teratogenic in the majority of mouse embryos
same,IL-2 in culture supernatant (ELISA),[3],modulates the expression
same,TNF-α in culture supernatant (ELISA),[3],modulates the expression
same,BrdU positive cells (cell cycle arrest),[4],dose-dependent reduction of BrdU positive cells
same,IFN-γ mRNA transcript,[5],significantly reduced
same,IL-6 mRNA level,[5]; [10],significant decrease
same,TNF-α mRNA level,[5]; [10],significant decrease
same,histone H4 acetylation in skin cells,[6],clear increase of histone H4 acetylation
same,HDAC-2 protein in peripheral blood cells,[7],down-regulation of the marker protein HDAC-2
same,histone H3 and H4 acetylation in peripheral blood cells,[7],Histone H3 and H4 hyperacetylation
same,cell growth (MTT assay),"[8]; MTT on day 3, combinations VPA 1 mM + Retinoic Acid 1 or 2 μM, FIG. 2",inhibited growth
same,cell growth (MTT assay),"[8]; MTT on the third day, 5 μM or 10 μM 5-FU and 1 mM VPA, FIG. 3",inhibited growth
same,cell growth (MTT assay),"[8]; treated three days, MTT on day 3, combinations VPA 1 mM + Tazarotene 1 or 2 μM, FIG. 1",inhibited cell growth
